Measured values: patent US20230219886A1, “NOVEL SELENO-NSAID ANALOGS AND USES THEREOF” (THE PENN STATE RESEARCH FOUNDATION, priority 2020, published 2023)
“Also recorded” adds a separate entry of the source.

Legend:
HT-29 cells = experiment: Cell cycle analysis by flow cytometry; type: cell-based, human; conditions: HT-29, 24 h; for population of cells in the S-phase: compared with vehicle; for population of cells in G1 and G2/M phases: compared with vehicle (DMSO)
Experimental: Cell Cycle Analysis. Cell cycle analyses were determined by following a flow cytometry protocol as described earlier (82). In brief, HT-29 cells were serum deprived for 72 hours to get them synchronized. At the end of 72 hours, cells were supplied with fresh medium or fresh medium with 1, 2.5, 5 and 10 μM of 1a and 6a for 24 hours. After each time point, the cells were fixed in ice cold 70% ethanol. Fixed cells were washed with 1×PBS and suspended in PI staining solution. PI staining solution was made by adding 0.1% (v/v) triton X-100, 20 mg of DNase-free RNase A, and 2 mg of PI in 100 mL of PBS. After staining for 15 min, the cells were analyzed by flow cytometer (Coulter Epics XL, Beckman Coulter).
Compounds 1a and 6a inhibited CRC cell growth by inducing cell cycle arrest. We investigated the effect 1a and 6a on the cell cycle by flow cytometry.

HT-29 (CRC cells) = experiment: NCI-60 one-dose screen, HT-29; type: cell-based, human; conditions: HT-29, 10 μM, 48 h
Description: (§1) NCI-60 Analysis. 1a and 6a were submitted to National Cancer Institute's (NCI) Developmental Therapeutics Program (DTP) where the cytotoxicity profile was investigated across their 60 human cancer cell line panel according to the protocol available on multiple sources (71-73, 83). The COMPARE algorithm (73), was utilized to evaluate the activity profile of 6a in comparison to those of known cytotoxins established in marketed drugs and standard agent data sets in order to correlate plausible modes of action.
(§2) NCI-60 analysis. Compounds 1a, 5a and 6a were submitted to the National Cancer Institute's (NCI) Developmental Therapeutics Program (DTP). NCI-60 program consists in a panel of 60 human cancer cell lines from a variety of cancers, including refractory tumors such as lung, ovarian, CRC, breast, brain and renal cancers, and melanomas together with more treatable cancers such as leukemias (71). 1a [NSC: 803071], 5a [NSC: 820332] and 6a [NSC: 811013] were initially screened at one dose (10 μM) at 48 h. Then, NCI selected only compound 6a to perform dose-response characterization (72).

H1299 (lung carcinoma) = experiment: MTT cell viability assay, H1299; conditions: for cell viability: 48 h
Experimental: Cell Culture Conditions. The cell lines were obtained from the American Type Culture Collection (ATCC). PANC-1 and Caco-2 cell lines were maintained in DMEM medium (Gibco); HT-29, HCT-116 and RKO cells were maintained in McCoy's 5A medium (Gibco); and DU-145 and H1299 cells were maintained in RPMI 1640 medium (Gibco), supplemented with 10% fetal bovine serum (FBS; Gibco) and 1% antibiotics (10.00 units/mL penicillin and 10.00 mg/mL streptomycin; Gibco). Cells were preserved in tissue culture flasks at 37° C. and 5% CO2. Culture medium was replaced every three days.
Cell Viability Assay. The effect of each compound on cell viability was tested using the MTT assay (81). Briefly, 9000 cells/well were grown in 96-well plates for 12 h. Then these cells were incubated with either DMSO (control) or nine different concentration between 0.01-50 μM of the test compounds for 24, 48, and 72 h. Three hours before the termination point, 20 μL of MTT were added to measure cellular viability. The resultant formazan crystals were dissolved in 50 μL of DMSO, and absorbance was measured at 570 nm and 630 nm wavelengths. IC50, GI50, TGI and LC50 values were calculated using OriginPro 8.5.1.
Evaluation of the antiproliferative activities of the novel molecules. […] These four cell lines were treated with each compound at three concentrations (5, 25 and 50 μM) for 48 h.

LC: EKVX = experiment: NCI-60 dose-response, EKVX; type: cell-based, human; conditions: 48 h
Description: as §1, §2

[1] = test system: NCI-60 human cancer cell line panel; experiment: NCI-60 dose-response, whole panel; type: cell-based
Description: as §1, §2

OV: OVCAR-5 = experiment: NCI-60 dose-response, OVCAR-5; type: cell-based, human; conditions: OVCAR-5, most resistant cell line
Description: as §1, §2

CNS: SF-539 = experiment: NCI-60 dose-response, SF-539; type: cell-based, human; conditions: SF-539, 48 h
Description: as §1, §2

RE: A498 = experiment: NCI-60 dose-response, A498; type: cell-based, human; conditions: A498, 48 h
Description: as §1, §2

BxPC3 cells [2] = experiment: Subcutaneous xenograft tumor inhibition study in athymic nude mice; type: in vivo
Experimental: (§3) The cytotoxic response of 6a on pancreatic ductal adenocarcinoma cell lines (Panc-1, MIA PaCa-2 and BxPC3) was evaluated using MTT assay. […] To determine whether the in vitro efficacy of 6a translates to in vivo models, we performed a pilot tumor inhibition study in xenograft mouse model using BxPC3 cells. Athymic nude mice were subcutaneously injected with BxPC3 cells. After two weeks, mice were injected intraperitoneally with vehicle DMSO (control) or 6a (three times a week at a dose of 4 mg/Kg in 100 μL of DMSO). Tumor size and animal weights were measured twice a week.

BxPC3 cells [3] = experiment: MTT assay, pancreatic ductal adenocarcinoma cells BxPC3; type: cell-based
Experimental: as §3

ME: LOX IMVI = experiment: NCI-60 dose-response, LOX IMVI; type: cell-based, human; conditions: 48 h
Description: as §1, §2

CNS: SF-295 = experiment: NCI-60 dose-response, SF-295; type: cell-based, human; conditions: SF-295, 48 h
Description: as §1, §2

LC: HOP-62 = experiment: NCI-60 dose-response, HOP-62; type: cell-based, human; conditions: HOP-62, 48 h
Description: as §1, §2

[4] = Systemic toxicity in xenograft mice; type: in vivo
Experimental: as §3

[5] = Homo sapiens, NCI-H1299, 48 h, read-out: cell viability
[6] = read-out: LC50 (the source's name)
[7] = 4 mg/Kg i.p. three times a week

With `C[Se]C(=O)c1ccccc1OC(C)=O` [Compound 1a, 2-((methylselanyl)carbonyl)phenyl acetate] as the compound, how does the “population of cells in the S-phase” value (HT-29 cells) read?
The value was “drastically reduced”.

What about the “population of cells in G1 and G2/M phases” value (HT-29 cells) of the same compound?
The value was “increase”.

And the “Growth percent (GP)” value (HT-29 (CRC cells))?
The value was less than 12%.

And the viability at 5 µM (H1299 (lung carcinoma); [5])?
Its viability at 5 µM is 48.7 ± 5%.

And the viability at 25 µM (H1299 (lung carcinoma); [5])?
Its viability at 25 µM is 41.6 ± 7.2%.

What about the viability at 50 µM (H1299 (lung carcinoma); [5]) of the same compound?
The viability at 50 µM was 31.4 ± 7.7%.

Which results are given for `C[Se]C(=O)CC1=C(C)/C(=C/c2ccc([S+](C)[O-])cc2)c2ccc(F)cc21` (centres unmarked) [Compound 6a, Se-methyl (Z)-2-(5-fluoro-2-methyl-1-(4-(methylsulfinyl)benzylidene)-1H-indenyl)ethaneselenoate]?
GI50 (LC: EKVX): < 10 nM; TGI (LC: EKVX): 10.8 nM; CC50 (LC: EKVX; [6]): 861 nM; cytotoxic activity towards the 6 most sensitive cells of the panel ([1]; LE:SR, CCRF-CEM, HCT-116, HL60, NCI-H522, MOLT-4): negligible; activity towards the 6 most resistant cells ([1]; TK10, SK-MEL-28, SNB-19, SK-OV-3, NCI-H322M, OVCAR-5): outstanding activity; TGI values ([1]; in all cell lines, except for seven): below 12 μM; GI50 ([1]; in four NSCLS and two CNS cell lines): < 10 nM; GI50 (OV: OVCAR-5): 47 nM; TGI (OV: OVCAR-5): 410 nM; CC50 (OV: OVCAR-5; [6]): 3900 nM; GI50 (CNS: SF-539): 105 nM; TGI (CNS: SF-539): 275 nM; CC50 (CNS: SF-539; [6]): 718 nM; GI50 (RE: A498): 38.8 nM; TGI (RE: A498): 184 nM; CC50 (RE: A498; [6]): 658 nM; population of cells in the S-phase (HT-29 cells): drastically reduced; population of cells in G1 and G2/M phases (HT-29 cells): increase; reduction of tumor weight as compared to control mice (BxPC3 cells [2]; 4 mg/Kg i.p. three times a week, 22 days since start of treatment): 42.9%; tumor growth (BxPC3 cells [2]; 4 mg/Kg i.p., three times a week, nude mice xenograft): significantly inhibited; also recorded: significantly reduced; IC50 (BxPC3 cells [3]): 1000 nM; GI50 (ME: LOX IMVI): 14.1 nM; LC50 (concentration giving 50% net cell kill) (ME: LOX IMVI): 62.1 nM; TGI (ME: LOX IMVI): 29.6 nM; GI50 (CNS: SF-295): 24.2 nM; LC50 (CNS: SF-295): 386 nM; TGI (CNS: SF-295): 107 nM; GI50 (LC: HOP-62): < 10 nM; LC50 (LC: HOP-62): 941 nM; TGI (LC: HOP-62): 155 nM; alanine aminotransferase (SGPT) [4, 7]: 19 U/L; bilirubin toxicity [4, 7]: 0.40 mg/dL; blood urea nitrogen [4, 7]: 23 mg/dL; body weight loss as compared to the control mice [4, 7]: did not show any significant weight loss; systemic toxicity ([4]; at the dose used (4 mg/Kg)): no evidence of systemic toxicity; cell viability (H1299 (lung carcinoma); H1299, 5 μM): 53.4 ± 20.2%; cell viability (H1299 (lung carcinoma); H1299, 25 μM): 41.9 ± 14.9%; cell viability (H1299 (lung carcinoma); H1299, 50 μM): 31.3 ± 6.4%
